Laboratory results reported in patent USRE49022E1, “Insecticidal compounds” (SYNGENTA PARTICIPATIONS AG, priority 2013, dated 2022).

Key:
Assay type in all cases: in vivo
[1] = tested on: Spodoptera littoralis (Egyptian Cotton Leafworm); assay: Spodoptera littoralis, cotton leaf disc spray test; settings: foliar, 72 h, sprayed cotton leaf discs, L1 larvae, 3 days after treatment
Text: Cotton leaf discs were placed on agar in a 24-well microtiter plate and sprayed with test solutions at an application rate of 200 ppm. After drying, the leaf discs were infested with 5 L1 larvae. The samples were checked for mortality 3 days after treatment (DAT).

[2] = tested on: Diabrotica balteata (Corn Root Worm); assay: Diabrotica balteata, artificial diet MTP test; settings: 120 h, 200 ppm (concentration in well 18 ppm), L2 larvae, larval mortality after 5 days
Experimental: A 24-well microtiter plate (MTP) with artificial diet was treated with test solutions at an application rate of 200 ppm (concentration in well 18 ppm) by pipetting. After drying, the MTP's were infested with L2 larvae (6-10 per well). After an incubation period of 5 days, samples were checked for larval mortality The following compound gave at least 80% control of Diabrotica balteata: 1, 2, 3, 4, 5, 6, 7, 8, 9, 10, 11, 12, 13, 14, 15, 16, 17, 18, 19, 20, 21, 22, 23, 24, 25, 26, 27, 28, 29, 30, 31, 32, 33, 34, 35, 36, 37, 38, 39, 40, 41, 42, 43, 44, 45, 46, 47, 48, 49, 50, 51.

[3] = tested on: Plutella xylostella (Diamond Back Moth); assay: Plutella xylostella, artificial diet MTP test; settings: 144 h, 200 ppm (concentration in well 18 ppm), L2 larvae, 6 days
Experimental: 24-well microtiter plate (MTP) with artificial diet was treated with test solutions at an application rate of 200 ppm (concentration in well 18 ppm) by pipetting. After drying, the MTP's were infested with L2 larvae (7-12 per well). After an incubation period of 6 days, samples were checked for larval mortality and growth regulation. The following compound gave at least 80% mortality of Plutella xylostella: 1, 2, 3, 4, 5, 6, 7, 8, 9, 10, 11, 12, 13, 14, 15, 16, 17, 18, 19, 20, 21, 22, 23, 24, 25, 26, 27, 28, 29, 30, 31, 32, 33, 34, 35, 36, 37, 38, 39, 40, 41, 42, 43, 44, 45, 46, 47, 48, 49, 50.

[4] = tested on: Thrips tabaci (Onion Thrips); assay: Thrips tabaci, sunflower leaf disc spray test; settings: foliar, 168 h, sprayed sunflower leaf discs, mortality after 7 days
[5] = tested on: Spodoptera littoralis (Egyptian Cotton Leaf Worm); assay: Spodoptera littoralis, agar / lettuce root uptake test; settings: 144 h, mixed with agar, uptake by lettuce roots, mortality 6 days after infestation
Text: Test compounds were applied by pipette into 24 well plates and mixed with agar. Application rate: 12.5 ppm. Lettuce seeds were placed on the agar and the multi well plate is closed by another plate which contains also agar. After 7 days the roots have absorbed the compound and the lettuce has grown into the lid plate. The lettuce leafs were now cut off into the lid plate. Spodoptera eggs were pipetted through a plastic stencil on a humid gel blotting paper and the plate closed with it. The samples are checked for mortality 6 days after infestation.

[6] = tested on: Myzus persicae (Green Peach Aphid); assay: Myzus persicae, sunflower leaf disc spray test; settings: foliar, 144 h, sprayed sunflower leaf discs, aphid population of mixed ages, mortality after 6 DAT
Experimental: Sunflower leaf discs were placed on agar in a 24-well microtiter plate and sprayed with test solutions at an application rate of 200 ppm. After drying, the leaf discs were infested with an aphid population of mixed ages. After an incubation period of 6 DAT, samples were checked for mortality.

[7] = tested on: Myzus persicae (Green Peach Aphid); assay: Myzus persicae, sucrose solution / Parafilm test; settings: 120 h, mixed with sucrose solution under Parafilm, mortality 5 days after infestation
Text: Test compounds were applied by pipette into 24 well plates and mixed with Sucrose solution. Application rate: 12.5 ppm. The plates were closed with a stretched Parafilm. A plastic stencil with 24 holes is placed onto the plate and infested pea seedlings were placed directly on the Parafilm. The infested plate is closed with a gel blotting paper and another plastic stencil and then turned upside down. 5 days after infestation the samples were checked on mortality.

[8] = tested on: Tetranychus urticae (Two-Spotted Spider Mite); assay: Tetranychus urticae, bean leaf disc spray test; settings: foliar, 192 h, sprayed bean leaf discs, mite populations of mixed ages, 8 days
Text: Bean leaf discs on agar in 24-well microtiter plates were sprayed with test solutions at an application rate of 200 ppm. After drying, the leaf discs are infested with mite populations of mixed ages. 8 days later, discs were checked for mortality.

COc1c(NC(=O)c2ccc(C#N)cc2)cccc1C(=O)Nc1c(Br)cc(C(F)(C(F)(F)F)C(F)(F)Cl)cc1OC(F)F (stereo not drawn) [Compound 16]
≥ 80%: mortality at 200 ppm [1] | pest or weed control at 200 ppm [2] | mortality at 200 ppm [3] | pest or weed control at 200 ppm [4] | pest or weed control at 12.5 ppm [5] | pest or weed control at 200 ppm [6] | pest or weed control at 12.5 ppm [7] | mortality at 200 ppm [8]

CCN(C(=O)c1cccnc1)c1cccc(C(=O)Nc2c(Br)cc(C(F)(C(F)(F)F)C(F)(F)Cl)cc2OC(F)F)c1OC (stereo not drawn) [Compound 40]
≥ 80%: mortality at 200 ppm [1] | pest or weed control at 200 ppm [2] | mortality at 200 ppm [3] | pest or weed control at 200 ppm [4] | pest or weed control at 12.5 ppm [5] | pest or weed control at 200 ppm [6] | pest or weed control at 12.5 ppm [7] | mortality at 200 ppm [8]

CCN(C(=O)c1ccc(C#N)cc1)c1cccc(C(=O)Nc2c(Cl)cc(C(F)(C(F)(F)F)C(F)(F)Br)cc2Br)c1OC (stereo not drawn) [Compound 1, N-[2-bromo-4-[1-[bromo(difluoro)methyl]-1,2,2,2-tetrafluoro-ethyl]-6-chloro-phenyl]-3-[(4-cyanobenzoyl)-ethyl-amino]-2-methoxy-benzamide]
≥ 80%: mortality at 200 ppm [1] | pest or weed control at 200 ppm [2] | mortality at 200 ppm [3] | pest or weed control at 200 ppm [4] | pest or weed control at 12.5 ppm [5] | pest or weed control at 200 ppm [6] | pest or weed control at 12.5 ppm [7] | mortality at 200 ppm [8]

CCN(C(=O)c1ccncc1)c1cccc(C(=O)Nc2c(Cl)cc(C(F)(C(F)(F)F)C(F)(F)Br)cc2Br)c1OC (stereo not drawn) [Compound 2, N-[3-[[2-bromo-4-[1-[bromo(difluoro)methyl]-1,2,2,2-tetrafluoro-ethyl]-6-chloro-phenyl]carbamoyl]-2-methoxy-phenyl]-N-ethyl-pyridine-4-carboxamide]
≥ 80%: mortality at 200 ppm [1] | pest or weed control at 200 ppm [2] | mortality at 200 ppm [3] | pest or weed control at 200 ppm [4] | pest or weed control at 12.5 ppm [5] | pest or weed control at 200 ppm [6] | pest or weed control at 12.5 ppm [7] | mortality at 200 ppm [8]

CCN(C(=O)c1cc[n+]([O-])cc1)c1cccc(C(=O)Nc2c(Br)cc(C(F)(C(F)(F)F)C(F)(F)Cl)cc2OC(F)F)c1F (stereo not drawn) [Compound 43]
≥ 80%: mortality at 200 ppm [1] | pest or weed control at 200 ppm [2] | mortality at 200 ppm [3] | pest or weed control at 200 ppm [4] | pest or weed control at 12.5 ppm [5] | pest or weed control at 200 ppm [6] | pest or weed control at 12.5 ppm [7] | mortality at 200 ppm [8]

COc1c(NC(=O)c2ccncc2)cccc1C(=O)Nc1c(Cl)cc(C(F)(C(F)(F)F)C(F)(F)Br)cc1Br (stereo not drawn) [Compound 3, N-[3-[[2-bromo-4-[1-[bromo(difluoro)methyl]-1,2,2,2-tetrafluoro-ethyl]-6-chloro-phenyl]carbamoyl]-2-methoxy-phenyl]pyridine-4-carboxamide]
≥ 80%: mortality at 200 ppm [1] | pest or weed control at 200 ppm [2] | mortality at 200 ppm [3] | pest or weed control at 200 ppm [4] | pest or weed control at 12.5 ppm [5] | pest or weed control at 200 ppm [6] | pest or weed control at 12.5 ppm [7] | mortality at 200 ppm [8]

N#Cc1ccc(C(=O)Nc2cccc(C(=O)Nc3c(Br)cc(C(F)(C(F)(F)F)C(F)(F)Cl)cc3OC(F)F)c2F)cc1 (stereo not drawn) [Compound 13]
≥ 80%: mortality at 200 ppm [1] | pest or weed control at 200 ppm [2] | mortality at 200 ppm [3] | pest or weed control at 200 ppm [4] | pest or weed control at 12.5 ppm [5] | pest or weed control at 200 ppm [6] | pest or weed control at 12.5 ppm [7] | mortality at 200 ppm [8]

CCN(C(=O)c1ccncc1)c1cccc(C(=O)Nc2c(Br)cc(C(F)(C(F)(F)F)C(F)(F)Cl)cc2OC(F)F)c1OC (stereo not drawn) [Compound 36, N-[3-[[2-bromo-4-[1-[chloro(difluoro)methyl]-1,2,2,2-tetrafluoro-ethyl]-6-(difluoromethoxy)phenyl]carbamoyl]-2-methoxy-phenyl]-N-ethyl-pyridine-4-carboxamide]
≥ 80%: mortality at 200 ppm [1] | pest or weed control at 200 ppm [2] | mortality at 200 ppm [3] | pest or weed control at 200 ppm [4] | pest or weed control at 12.5 ppm [5] | pest or weed control at 200 ppm [6] | pest or weed control at 12.5 ppm [7] | mortality at 200 ppm [8]

CCN(C(=O)c1ccncc1)c1cccc(C(=O)Nc2c(Br)cc(C(F)(C(F)(F)F)C(F)(F)Br)cc2OC(F)F)c1OC (stereo not drawn) [Compound 9]
≥ 80%: mortality at 200 ppm [1] | pest or weed control at 200 ppm [2] | mortality at 200 ppm [3] | pest or weed control at 200 ppm [4] | pest or weed control at 12.5 ppm [5] | pest or weed control at 200 ppm [6] | pest or weed control at 12.5 ppm [7] | mortality at 200 ppm [8]

O=C(Nc1cccc(C(=O)Nc2c(Br)cc(C(F)(C(F)(F)F)C(F)(F)Br)cc2OC(F)F)c1F)c1cc[n+]([O-])cc1 (stereo not drawn) [Compound 6]
≥ 80%: mortality at 200 ppm [1] | pest or weed control at 200 ppm [2] | mortality at 200 ppm [3] | pest or weed control at 200 ppm [4] | pest or weed control at 12.5 ppm [5] | pest or weed control at 200 ppm [6] | pest or weed control at 12.5 ppm [7] | mortality at 200 ppm [8]

O=C(Nc1cccc(C(=O)Nc2c(Br)cc(C(F)(C(F)(F)F)C(F)(F)Cl)cc2OC(F)F)c1F)c1cccnc1 (stereo not drawn) [Compound 12]
≥ 80%: mortality at 200 ppm [1] | pest or weed control at 200 ppm [2] | mortality at 200 ppm [3] | pest or weed control at 200 ppm [4] | pest or weed control at 12.5 ppm [5] | pest or weed control at 200 ppm [6] | pest or weed control at 12.5 ppm [7] | mortality at 200 ppm [8]

CCN(C(=O)c1cc[n+]([O-])cc1)c1cccc(C(=O)Nc2c(Br)cc(C(F)(C(F)(F)F)C(F)(F)Cl)cc2OC(F)F)c1OC (stereo not drawn) [Compound 44, N-[3-[[2-bromo-4-[1-[chloro(difluoro)methyl]-1,2,2,2-tetrafluoro-ethyl]-6-(difluoromethoxy)phenyl]carbamoyl]-2-methoxy-phenyl]-N-ethyl-1-oxido-pyridin-1-ium-4-carboxamide]
≥ 80%: mortality at 200 ppm [1] | pest or weed control at 200 ppm [2] | mortality at 200 ppm [3] | pest or weed control at 200 ppm [4] | pest or weed control at 12.5 ppm [5] | pest or weed control at 200 ppm [6] | pest or weed control at 12.5 ppm [7] | mortality at 200 ppm [8]

CCc1cc(C(F)(C(F)(F)F)C(F)(F)Cl)cc(Br)c1NC(=O)c1cccc(N(CC)C(=O)c2cccnc2)c1F (stereo not drawn) [Compound 41]
≥ 80%: mortality at 200 ppm [1] | pest or weed control at 200 ppm [2] | mortality at 200 ppm [3] | pest or weed control at 200 ppm [4] | pest or weed control at 12.5 ppm [5] | pest or weed control at 200 ppm [6] | pest or weed control at 12.5 ppm [7] | mortality at 200 ppm [8]

O=C(Nc1cccc(C(=O)Nc2c(Br)cc(C(F)(C(F)(F)F)C(F)(F)Cl)cc2OC(F)F)c1F)c1ccc[n+]([O-])c1 (stereo not drawn) [Compound 24]
≥ 80%: mortality at 200 ppm [1] | pest or weed control at 200 ppm [2] | mortality at 200 ppm [3] | pest or weed control at 200 ppm [4] | pest or weed control at 12.5 ppm [5] | pest or weed control at 200 ppm [6] | pest or weed control at 12.5 ppm [7] | mortality at 200 ppm [8]

COc1c(NC(=O)c2ccncc2)cccc1C(=O)Nc1c(Br)cc(C(F)(C(F)(F)F)C(F)(F)Cl)cc1OC(F)F (stereo not drawn) [Compound 14]
≥ 80%: mortality at 200 ppm [1] | pest or weed control at 200 ppm [2] | mortality at 200 ppm [3] | pest or weed control at 200 ppm [4] | pest or weed control at 12.5 ppm [5] | pest or weed control at 200 ppm [6] | pest or weed control at 12.5 ppm [7] | mortality at 200 ppm [8]
